The values that follow come from BindingDB's records for doi:10.7270/Q2N014XN (Srmlsc, 2007).

Molecules are shown by their SMILES. Where a name gives a salt, the structure may show the parent alone. Bounds are passed on as bounds.

The target in the first test is T1, Diphosphomevalonate decarboxylase (Streptococcus pneumoniae serotype 2 (strain D39 / NCTC 7466), UniProt A0A0H2ZN59).
T1 sequence (A0A0H2ZN59 whole entry): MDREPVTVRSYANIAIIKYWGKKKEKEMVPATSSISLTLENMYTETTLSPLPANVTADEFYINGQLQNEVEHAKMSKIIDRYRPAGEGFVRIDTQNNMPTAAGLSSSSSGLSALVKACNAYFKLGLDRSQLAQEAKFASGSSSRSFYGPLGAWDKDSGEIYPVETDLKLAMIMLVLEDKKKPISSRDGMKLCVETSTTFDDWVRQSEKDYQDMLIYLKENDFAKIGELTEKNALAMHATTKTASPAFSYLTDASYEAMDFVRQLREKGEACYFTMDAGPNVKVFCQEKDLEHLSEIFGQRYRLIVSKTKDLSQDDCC
The test is described as follows: S. pneumoniae DPM-DC inhibitor potency, dose response, biochemical, PK/LDH-coupled NADH fluorescence, hexokinase coupling counter-screen (AID 550).
Conditions: not given
As to `CN(C)Cc1nc2ccccc2c(=O)n1Cc1nc(-c2cc3ccccc3o2)cs1` [3-[[4-(1-benzofuran-2-yl)-1,3-thiazol-2-yl]methyl]-2-[(dimethylamino)methyl]quinazolin-4-one], the IC50 is more than 10000 µM.
Still for that read-out and setting: in the case of `COc1ccc(-c2c3c(nc4sc(C(=O)Nc5cc(C)on5)c(N)c24)CCC3)cc1` [3-amino-4-(4-methoxyphenyl)-N-(5-methyl-3-isoxazolyl)-6,7-dihydro-5H-cyclopenta[b]thieno[3,2-e]pyridine-2-carboxamide] it was 8.33 µM.
On the same count and under the same terms, in the case of `COC(=O)c1sc2nc(-c3ccco3)ccc2c1N` [3-amino-6-(2-furanyl)-2-thieno[2,3-b]pyridinecarboxylic acid methyl ester] it was 28.7 µM; in that of `O=C(NC1CCCCC1)N(CCN1CCCC1)Cc1cc2cc3c(cc2[nH]c1=O)OCCO3` [3-cyclohexyl-1-[(7-oxo-3,6-dihydro-2H-[1,4]dioxino[2,3-g]quinolin-8-yl)methyl]-1-[2-(1-pyrrolidinyl)ethyl]urea], 15 µM; in that of `CCOC(=O)CC(=O)CSc1ccc2nnc(-c3ccc(C)cc3)n2n1` [3-keto-4-[[3-(p-tolyl)-[1,2,4]triazolo[4,3-b]pyridazin-6-yl]thio]butyric acid ethyl ester], 287 µM.
Consider `COc1cccc(C(=O)Nc2ccc(NC(=O)C(C)C)nc2)c1` [3-methoxy-N-[6-(2-methylpropanoylamino)pyridin-3-yl]benzamide], for which the IC50 is more than 10000 µM.
On the same count and under the same terms, to `Cc1c(C(=O)NCC2CCCO2)sc2nc(-c3ccccc3)cn12` (stereo not drawn) [3-methyl-6-phenyl-N-(tetrahydrofurfuryl)imidazo[2,1-b]thiazole-2-carboxamide] belongs more than 10000 µM; to `Cc1c(C(=O)NCc2ccc3c(c2)OCO3)sc2nc(-c3ccccc3)cn12` [3-methyl-6-phenyl-N-piperonyl-imidazo[2,1-b]thiazole-2-carboxamide], more than 10000 µM; to `CC(C)CC(=O)NCC(C)NC(=O)CC(C)C` (stereo not drawn) [3-methyl-N-[2-(3-methylbutanoylamino)propyl]butanamide], more than 10000 µM.
On the same count and under the same terms, to `Cc1ccccc1Cc1c(C)nc2c(C(=O)N3CCN(Cc4ccc5c(c4)OCO5)CC3)cnn2c1C` [3-{[4-(1,3-benzodioxol-5-ylmethyl)piperazin-1-yl]carbonyl}-5,7-dimethyl-6-(2-methylbenzyl)pyrazolo[1,5-a]pyrimidine] belongs more than 10000 µM.
The same measure, in the same setting: to `COc1cc(NC(=O)c2cccs2)c(C(=O)OCC(=O)NCc2ccco2)cc1OC` [4,5-dimethoxy-2-(2-thenoylamino)benzoic acid [2-(2-furfurylamino)-2-keto-ethyl] ester] belongs more than 10000 µM; to `COC(=O)c1cc(OC)c(OC)cc1NC(=O)c1oc2ccccc2c1C` [4,5-dimethoxy-2-[(3-methylbenzofuran-2-carbonyl)amino]benzoic acid methyl ester], more than 10000 µM.
In turn, `Cc1cnc(SCCc2ccncc2)nc1C` [4,5-dimethyl-2-(2-pyridin-4-ylethylsulfanyl)pyrimidine;hydrochloride] yielded an IC50 of more than 10000 µM.
As to `CCOC(=O)c1c(Nc2nc(C)c(C(=O)NC)s2)sc(C)c1C` [4,5-dimethyl-2-[[4-methyl-5-(methylcarbamoyl)-2-thiazolyl]amino]-3-thiophenecarboxylic acid ethyl ester], the IC50 is more than 10000 µM.
Still for that read-out and setting: in the case of `COc1ccccc1NC(=O)C1=C(C)N=C2CCCC(=O)C2C1c1ccc2c(c1)OCO2` (stereo not drawn) [4-(1,3-benzodioxol-5-yl)-N-(2-methoxyphenyl)-2-methyl-5-oxo-4,6,7,8-tetrahydro-1H-quinoline-3-carboxamide] it was 76.3 µM; in that of `Cc1noc(C)c1CSc1nc2ccccc2s1` [4-(1,3-benzothiazol-2-ylsulfanylmethyl)-3,5-dimethyl-1,2-oxazole], more than 10000 µM; in that of `Cn1c(-c2ccc(N)cc2)nc2ccccc21` [4-(1-methyl-2-benzimidazolyl)aniline], more than 10000 µM.
`Cn1c(N2CCOCC2)nc(-c2ccccc2)c1-c1ccccc1` [4-(1-methyl-4,5-diphenyl-2-imidazolyl)morpholine] came in with an IC50 of 40.8 µM.
The same measure, in the same setting: in the case of `CCCCC(=O)Nc1ccc(C(N)=O)cc1` [4-(1-oxopentylamino)benzamide] it was more than 10000 µM; in that of `Cc1cc(C)n2nc3nc(N4CCCCC4)nc(-c4ccco4)c3c2n1` [4-(2-furyl)-6,8-dimethyl-2-piperidin-1-ylpyrimido[4',5':3,4]pyrazolo[1,5-a]pyrimidine], 111 µM.
On the same count and under the same terms, to `COC(=O)c1cc(Cl)c(NS(=O)(=O)c2ccccc2)cc1OC` [4-(benzenesulfonamido)-5-chloro-2-methoxy-benzoic acid methyl ester] belongs 32.2 µM; to `CCOC(=O)N1CCN(C(=O)c2cn(CC)c3cc(N4CCN(C)CC4)c(F)cc3c2=O)CC1` [4-[1-ethyl-6-fluoro-4-keto-7-(4-methylpiperazino)quinoline-3-carbonyl]piperazine-1-carboxylic acid ethyl ester;hydrochloride], 50.6 µM; to `O=C(CN1CCCC1)N1CCCc2c1c(=O)oc1ccc(OCc3ccccc3)cc21` [4-[1-oxo-2-(1-pyrrolidinyl)ethyl]-9-phenylmethoxy-2,3-dihydro-1H-[1]benzopyrano[3,4-b]pyridin-5-one], 24.7 µM.
Same read-out and setting: to `COC(=O)c1cc2occc2n1CC(=O)Nc1ccc(OC)c(OC)c1OC` [4-[2-keto-2-(2,3,4-trimethoxyanilino)ethyl]furo[3,2-b]pyrrole-5-carboxylic acid methyl ester] belongs more than 10000 µM.
Regarding `COc1ccccc1-c1nnc2sc(-c3ccc(N(C)C)cc3)nn12` [4-[3-(2-methoxyphenyl)-[1,2,4]triazolo[3,4-b][1,3,4]thiadiazol-6-yl]-N,N-dimethyl-aniline], inhibition was half-maximal at 16.3 µM (IC50). In other words, the double-digit micromolar range.
Still for that read-out and setting: in the case of `CCOC(=O)N1CCN(C(=O)CCc2c(C)nc3c(c(C)nn3-c3ccc(C)c(C)c3)c2C)CC1` [4-[3-[1-(3,4-dimethylphenyl)-3,4,6-trimethyl-5-pyrazolo[3,4-b]pyridinyl]-1-oxopropyl]-1-piperazinecarboxylic acid ethyl ester] it was 27.8 µM; in that of `CCOC(=O)N1CCC(NC(=O)CSc2cc(=O)n(C)c3ccccc23)CC1` [4-[[2-[(1-methyl-2-oxo-4-quinolinyl)thio]-1-oxoethyl]amino]-1-piperidinecarboxylic acid ethyl ester], 399 µM.
The same measure, in the same setting: in the case of `COC(=O)c1ccc(Nc2cc(C)nc(-c3ccccc3O)n2)cc1` [4-[[(2E)-2-(6-ketocyclohexa-2,4-dien-1-ylidene)-6-methyl-1H-pyrimidin-4-yl]amino]benzoic acid methyl ester] it was 18.6 µM; in that of `CCOc1ccc(C(=O)O)cc1OC` [4-ethoxy-3-methoxy-benzoic acid], more than 10000 µM.
The same measure, in the same setting: to `CCOC(=O)c1cc2c(=O)n(C)c3ccccc3c2s1` [4-keto-5-methyl-thieno[3,2-c]quinoline-2-carboxylic acid ethyl ester] belongs more than 10000 µM.
`Cc1cc(=O)oc2ccc(OCC(=O)N3CCC(C)CC3)cc12` [4-methyl-6-[2-(4-methyl-1-piperidinyl)-2-oxoethoxy]-1-benzopyran-2-one] registered an IC50 of 213 µM.
Same read-out and setting: to `O=C(NCc1cccnc1)c1ccc2c(=O)n(CCCN3CCCC3=O)c(=S)[nH]c2c1` [4-oxidanylidene-3-[3-(2-oxidanylidenepyrrolidin-1-yl)propyl]-N-(pyridin-3-ylmethyl)-2-sulfanylidene-1H-quinazoline-7-carboxamide] belongs more than 10000 µM; to `Cc1c2ccncc2c(C)c2c1[nH]c1ccccc12` [5,11-dimethyl-2H-pyrido[4,3-b]carbazole], 119 µM; to `COCCNC(=O)c1cnn2c(C(F)(F)F)cc(-c3ccc4c(c3)OCO4)nc12` [5-(1,3-benzodioxol-5-yl)-N-(2-methoxyethyl)-7-(trifluoromethyl)-3-pyrazolo[1,5-a]pyrimidinecarboxamide], more than 10000 µM.
The same measure, in the same setting: in the case of `Cc1c(C(=O)NC2CC2)oc2ccc(S(=O)(=O)N3CCCCCC3)cc12` [5-(1-azepanylsulfonyl)-N-cyclopropyl-3-methyl-2-benzofurancarboxamide] it was more than 10000 µM.
Same read-out and setting: in the case of `Cc1cccc(Nc2nnc(S)s2)c1C` [5-(2,3-dimethylanilino)-3H-1,3,4-thiadiazole-2-thione] it was 188 µM; in that of `COc1ccc(-c2nnc(Nc3nc4c(OC)cccc4s3)o2)c(OC)c1` [5-(2,4-dimethoxyphenyl)-N-(4-methoxy-1,3-benzothiazol-2-yl)-1,3,4-oxadiazol-2-amine], 6.62 µM.
`Cc1ccccc1Cn1cc(NC(=O)c2cc3nc(-c4ccco4)cc(C(F)(F)F)n3n2)cn1` [5-(2-furanyl)-N-[1-[(2-methylphenyl)methyl]-4-pyrazolyl]-7-(trifluoromethyl)-2-pyrazolo[1,5-a]pyrimidinecarboxamide]: the 50% inhibitory concentration (IC50) stood at 31.4 µM. This IC50 is about 4.7-fold higher than that of the compound before.
Same read-out and setting: in the case of `COc1ccc(C2CC(c3cccc(C)c3)n3nc(N)nc3N2)cc1` (stereo not drawn) [5-(4-methoxyphenyl)-7-(3-methylphenyl)-1,5,6,7-tetrahydro-[1,2,4]triazolo[1,5-a]pyrimidin-2-amine] it was more than 10000 µM.
For `c1ccc(-c2nc3nonc3c3nc4ccccc4n23)cc1` [5-Phenyl-2-oxa-1,3,4,5a,10-pentaaza-cyclopenta[a]fluorene], the 50% inhibitory concentration (IC50) is more than 10000 µM.

The same test, now with this note: inactive by the depositor's call.
The compound `Nc1cc(C(=O)O)ccc1Nc1ccccc1` [3-amino-4-anilino-benzoic acid] showed an IC50 of 120 µM.
On the same count and under the same terms, in the case of `CCN(CC)c1ccc(C=Nn2c(=S)[nH]nc(C)c2=O)cc1` [4-[[4-(diethylamino)phenyl]methylideneamino]-6-methyl-3-sulfanylidene-2H-1,2,4-triazin-5-one] it was 20.2 µM; in that of `Nc1cccc2c1C(=O)N(c1ccccc1)C2=O` [4-azanyl-2-phenyl-isoindole-1,3-dione], 60.5 µM.
